Source: ChEMBL document CHEMBL6092197, “Novel benzenesulfonamide-aroylhydrazone conjugates as carbonic anhydrase inhibitors that induce MAPK/ERK-mediated cell cycle arrest and mitochondrial-associated apoptosis in MCF-7 breast cancer cells” (Bioorg Med Chem, 2024)
Blank lines part the entries; values can stand above or below the molecule they belong to.

Tests used:
MCF7 [1] = assay: cells; settings: Homo sapiens, MCF7, 72 h
Description: Antiproliferative activity against human MCF7 cells assessed as reduction in cell proliferation incubated for 72 hrs by MTT assay

in vitro = settings: human, HaCaT cells
Description: Cytotoxicity against human HaCaT cells assessed as reduction in cell proliferation incubated for 72 hrs by MTT assay

Carbonic anhydrase 1 = Carbonic anhydrase 1 (Homo sapiens, UniProt P00915); assay: Inhibition of human carbonic anhydrase I assessed as inhibition constant incubated for 15 mins by stopped flow CO2-hydrase assay
Chain of Carbonic anhydrase 1 (P00915 whole entry): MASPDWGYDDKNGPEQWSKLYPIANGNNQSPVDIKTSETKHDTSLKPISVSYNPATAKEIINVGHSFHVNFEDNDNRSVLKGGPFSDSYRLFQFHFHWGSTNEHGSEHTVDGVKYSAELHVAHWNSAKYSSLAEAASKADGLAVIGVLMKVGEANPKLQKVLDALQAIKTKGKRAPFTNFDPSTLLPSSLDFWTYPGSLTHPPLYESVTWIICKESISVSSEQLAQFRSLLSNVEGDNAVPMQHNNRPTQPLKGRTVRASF

Carbonic anhydrase 9 = Carbonic anhydrase 9 (Homo sapiens, UniProt Q16790); assay: Inhibition of human carbonic anhydrase IX assessed as inhibition constant incubated for 15 mins by stopped flow CO2-hydrase assay
[2] = Selectivity index, ratio of IC50 for human HaCaT cells to IC50 for human HeLa cells; assay type: toxicity; settings: HaCaT cells versus HeLa cells, read-out: Ratio IC50
HCT-116 = assay: cells; settings: Homo sapiens, HCT-116, 72 h
Description: Antiproliferative activity against human HCT-116 cells assessed as reduction in cell proliferation incubated for 72 hrs by MTT assay

HeLa = assay: cells; settings: Homo sapiens, 72 h
Description: Antiproliferative activity against human HeLa cells assessed as reduction in cell proliferation incubated for 72 hrs by MTT assay

Carbonic anhydrase 2 = Carbonic anhydrase 2 (Homo sapiens, UniProt P00918); assay: Inhibition of human carbonic anhydrase II assessed as inhibition constant incubated for 15 mins by stopped flow CO2-hydrase assay
Carbonic anhydrase 12 = Carbonic anhydrase 12 (Homo sapiens, UniProt O43570); assay: Inhibition of human carbonic anhydrase XII assessed as inhibition constant incubated for 15 mins by stopped flow CO2-hydrase assay
Chain of Carbonic anhydrase 12 (O43570 whole entry): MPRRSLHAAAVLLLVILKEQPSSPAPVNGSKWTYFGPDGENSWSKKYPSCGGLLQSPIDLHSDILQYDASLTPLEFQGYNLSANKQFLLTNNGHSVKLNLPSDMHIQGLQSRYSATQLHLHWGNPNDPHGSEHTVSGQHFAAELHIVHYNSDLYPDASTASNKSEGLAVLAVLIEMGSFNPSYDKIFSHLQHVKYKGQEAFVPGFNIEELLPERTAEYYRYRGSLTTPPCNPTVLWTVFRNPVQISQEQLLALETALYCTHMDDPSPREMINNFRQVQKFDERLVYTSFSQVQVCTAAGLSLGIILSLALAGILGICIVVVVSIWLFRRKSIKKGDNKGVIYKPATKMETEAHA

[3] = Selectivity index, ratio of IC50 for human HaCaT cells to IC50 for human HCT-116 cells; assay type: toxicity; settings: HaCaT cells versus HCT-116 cells, read-out: Ratio IC50
[4] = Selectivity index, ratio of IC50 for human HaCaT cells to IC50 for human MCF7 cells; assay type: toxicity; settings: HaCaT cells versus MCF7 cells, read-out: Ratio IC50
MCF7 [5] = assay: Antiproliferative activity against human MCF7 cells assessed as reduction in cell proliferation incubated for 24 hrs by MTT assay; assay type: functional, cell-based; settings: MCF7, 24 h
MCF7 [6] = assay: Effect on apoptosis in human MCF7 cells assessed as fold decrease in apoptotic cells at 10 uM preincubated with U0126 for 1 hrs followed by compound addition and measured after 72 hrs by Annexin V-PE/7-AAD staining based flow cytometric analysis; assay type: functional
MCF7 [7] = assay: Induction of apoptosis in human MCF7 cells assessed as total apoptotic cells at 10 uM incubated for 72 hrs by Annexin V-PE/7-AAD staining based flow cytometric analysis relative to control; assay type: functional
MCF7 [8] = assay: Inhibition of colony formation in human MCF7 cells assessed as reduction in colony formation at […] preincubated with compound for 24 hrs followed by replacement with DMEM medium and measured after 2 weeks by crystal violet staining based analysis relative to control; assay type: functional; settings: dose 2.5 µM
MCF7 [9] = assay: Inhibition of colony formation in human MCF7 cells assessed as reduction in colony formation at 5 uM preincubated with compound for 24 hrs followed by replacement with DMEM medium and measured after 2 weeks by crystal violet staining based analysis relative to control; assay type: functional
MCF7 [10] = assay: Antiproliferative activity against human MCF7 cells assessed as reduction in cell proliferation incubated for 48 hrs by MTT assay; assay type: functional, cell-based; settings: MCF7, 48 h
MCF7 [11] = assay: Induction of apoptosis in human MCF7 cells assessed as increase in caspase activity at 10 uM preincubated for 48 hrs followed by carboxyfluorescein-labeled fluoro-methyl ketone peptide addition and measured after 1 hrs by fluorescence based analysis relative to control; assay type: functional

SMILES: NS(=O)(=O)c1cc(C(=O)N/N=C/c2ccc(O)cc2O)c(SCc2ccc(F)cc2)cc1Cl
IC50 (MCF7 [1]): 25 µM
IC50 at 72 h (in vitro): 32 µM
Ki (Carbonic anhydrase 1): 0.0807 µM
Ki (Carbonic anhydrase 9): 0.0801 µM
selectivity ratio [2]: 1.1
IC50 (HCT-116): 11.5 µM
IC50 (HeLa): 28 µM
Ki (Carbonic anhydrase 2): 0.0561 µM
Ki (Carbonic anhydrase 12): 0.0803 µM
selectivity ratio [3]: 2.9
selectivity ratio [4]: 1.2

SMILES: NNC(=O)c1cc(S(N)(=O)=O)c(Cl)cc1SCc1ccccc1
IC50 (MCF7 [1]): 105 µM
IC50 (HCT-116): 155 µM
IC50 (HeLa): 350 µM

SMILES: NS(=O)(=O)c1cc(C(=O)N/N=C/c2ccc(Br)cc2O)c(SCc2ccc(F)cc2)cc1Cl
IC50 (MCF7 [1]): 6 µM
IC50 at 72 h (in vitro): 33 µM
IC50 (MCF7 [5]): 90 µM
fold change (FC) (MCF7 [6]): 2.2
Activity (MCF7 [7]): 60%
Ki (Carbonic anhydrase 1): 0.537 µM
Ki (Carbonic anhydrase 9): 0.852 µM
selectivity ratio [2]: 1.8
IC50 (HCT-116): 6 µM
IC50 (HeLa): 18 µM
Ki (Carbonic anhydrase 2): 0.646 µM
inhibition at […] (MCF7 [8]): 65%
Ki (Carbonic anhydrase 12): 0.695 µM
inhibition at 5 µM (MCF7 [9]): 80%
selectivity ratio [3]: 5.5
IC50 (MCF7 [10]): 6 µM
Activity (MCF7 [11]): 30%
selectivity ratio [4]: 5.5

SMILES: NNC(=O)c1cc(S(N)(=O)=O)c(Cl)cc1SCc1ccc(F)cc1
IC50 (MCF7 [1]): 24 µM
IC50 at 72 h (in vitro): 65 µM
selectivity ratio [2]: 1.8
IC50 (HCT-116): 18 µM
IC50 (HeLa): 36 µM
selectivity ratio [3]: 3.6
selectivity ratio [4]: 2.7

Further lines, with some results ahead:

IC50 (MCF7 [1]): 22 µM
IC50 at 72 h (in vitro): 58 µM
Ki (Carbonic anhydrase 1): 0.144 µM
Ki (Carbonic anhydrase 9): 0.0581 µM
IC50 (HCT-116): 14 µM
IC50 (HeLa): 29 µM
Ki (Carbonic anhydrase 2): 0.0491 µM
Ki (Carbonic anhydrase 12): 0.0568 µM
SMILES: NS(=O)(=O)c1cc(C(=O)N/N=C/c2ccc(O)cc2O)c(SCc2ccccc2)cc1Cl
selectivity ratio [2]: 2
selectivity ratio [3]: 4.1
selectivity ratio [4]: 2.6

IC50 (MCF7 [1]): 4 µM
IC50 (MCF7 [5]): 98 µM
Ki (Carbonic anhydrase 1): 0.328 µM
Ki (Carbonic anhydrase 9): 0.0857 µM
IC50 (HeLa): 16 µM
Ki (Carbonic anhydrase 2): 0.0411 µM
Ki (Carbonic anhydrase 12): 0.0822 µM
IC50 (MCF7 [10]): 6 µM
SMILES: NS(=O)(=O)c1cc(C(=O)N/N=C/c2ccc(Br)cc2O)c(SCc2ccccc2)cc1Cl
fold change (FC) (MCF7 [6]): 2
Activity (MCF7 [7]): 65%
selectivity ratio [2]: 2
inhibition at […] (MCF7 [8]): 80%
inhibition at 5 µM (MCF7 [9]): 85%
Activity (MCF7 [11]): 30%
selectivity ratio [4]: 8.2
